Experimental data: patent publication US20240116985A1, “STAPLED PEPTIDES AND METHODS THEREOF” (priority 2020, published 2024)
Values after ≈ are worked out from the molar mass of the structure shown. Read-outs that look alike come from different tables or passages of the source.

Experiments:
CHI Log D procedure = format: physicochemical; details: for chromatographic logD: pH 7.4, CHI Log D; for CHI Log D: pH 7.4
Solubility in PBS = format: physicochemical
Outline: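 Steps: ultracentrifuge the peptide PBS solution, inject the supernatant on HPLC, inject a 50 μM peptide DMSO solution as reference, then calculate solubility as area ratio (PBS/DMSO) × 50 uM.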

[1] = target: T1, full-length beta-Catenin (Uniprot ID P35222) (Homo sapiens, UniProt P35222); test: Fluorescence polarization IC50 (beta-catenin / 5FAM-TCF4 10-53 competition); format: binding
T1 construct: 10 nM full-length beta-Catenin (Uniprot ID P35222)
T1 sequence (P35222 1-781): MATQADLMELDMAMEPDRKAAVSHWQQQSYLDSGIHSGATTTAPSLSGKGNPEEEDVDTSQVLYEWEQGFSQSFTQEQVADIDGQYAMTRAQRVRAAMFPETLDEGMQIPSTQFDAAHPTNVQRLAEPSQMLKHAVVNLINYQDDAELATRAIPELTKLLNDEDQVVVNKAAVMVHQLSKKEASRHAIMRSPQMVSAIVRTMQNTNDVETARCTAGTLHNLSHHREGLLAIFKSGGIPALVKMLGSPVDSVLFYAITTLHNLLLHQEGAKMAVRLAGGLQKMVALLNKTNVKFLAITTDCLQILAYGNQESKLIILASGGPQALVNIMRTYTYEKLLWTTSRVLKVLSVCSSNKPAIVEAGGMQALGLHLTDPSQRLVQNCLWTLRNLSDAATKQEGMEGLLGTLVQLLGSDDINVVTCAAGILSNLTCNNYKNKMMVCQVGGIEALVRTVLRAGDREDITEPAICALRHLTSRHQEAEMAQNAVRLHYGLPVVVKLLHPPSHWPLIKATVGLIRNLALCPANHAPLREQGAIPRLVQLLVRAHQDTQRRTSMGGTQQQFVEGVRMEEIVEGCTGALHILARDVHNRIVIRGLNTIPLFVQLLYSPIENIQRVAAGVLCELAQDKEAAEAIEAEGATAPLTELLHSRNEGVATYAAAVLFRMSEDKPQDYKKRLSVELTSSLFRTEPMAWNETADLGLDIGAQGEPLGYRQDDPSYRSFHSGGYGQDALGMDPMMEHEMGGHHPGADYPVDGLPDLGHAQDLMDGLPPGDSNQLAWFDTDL

[2] = fluorescence polarization, read-out: beta-Catenin FP IC50

## CC[C@H](C)[C@@H]1NC(=O)[C@H](CC(=O)O)NC(=O)[C@]2(CC=CCCCC3(CCCC=CCCCCCC[C@@](C)(C(=O)N[C@@H](Cc4ccccc4)C(=O)N[C@@H](Cc4csc5ccccc45)C(=O)N[C@@H](CC(C)C)C(N)=O)NC(=O)[C@H](CCC(N)=O)NC(=O)[C@H](Cc4ccccc4)NC(=O)[C@H](C)NC(=O)[C@H](C)NC(=O)[C@H](CCC(=O)O)NC(=O)[C@H](CC(=O)O)NC3=O)NC1=O)CCCN2C(C)=O (stereo partly drawn) [I-634, Ac-PL3-Asp-Ile-B5-Asp-Glu-Ala-Ala-Phe-Gln-S8-Phe-BztA-Leu-NH2]
CHI Log D procedure
  chromatographic logD: 2.76
Solubility in PBS; Solubility (uM)
  Solubility: 49 µM (≈ 91.5 µg/mL)
[1]; [2]
  IC50: 425 nM

## CC[C@H](C)[C@@H]1NC(=O)[C@H](CC(=O)O)NC(=O)[C@]2(CC=CCCCC3(CCCC=CCCCCCC[C@@](C)(C(=O)N[C@@H](Cc4ccccc4)C(=O)N[C@@H](Cc4csc5ccccc45)C(=O)N[C@@H](Cc4ccccc4)C(N)=O)NC(=O)[C@H](CCC(N)=O)NC(=O)[C@H](Cc4ccccc4)NC(=O)[C@H](C)NC(=O)[C@H](C)NC(=O)[C@H](CCC(=O)O)NC(=O)[C@H](CC(=O)O)NC3=O)NC1=O)CCCN2C(C)=O (stereo partly drawn) [I-635, Ac-PL3-Asp-Ile-B5-Asp-Glu-Ala-Ala-Phe-Gln-S8-Phe-BztA-Phe-NH2]
CHI Log D procedure
  chromatographic logD: 2.73
Solubility in PBS; Solubility (uM)
  Solubility: 43 µM (≈ 81.8 µg/mL)
[1]; [2]
  IC50: 171 nM

## CC[C@H](C)[C@@H]1NC(=O)[C@H](CC(=O)O)NC(=O)[C@]2(CC=CCCCC3(CCCC=CCCCCCC[C@@](C)(C(=O)N[C@@H](Cc4ccccc4)C(=O)N[C@@H](Cc4csc5ccccc45)C(=O)N[C@@H](Cc4ccc(O)cc4)C(N)=O)NC(=O)[C@H](CCC(N)=O)NC(=O)[C@H](Cc4ccccc4)NC(=O)[C@H](C)NC(=O)[C@H](C)NC(=O)[C@H](CCC(=O)O)NC(=O)[C@H](CC(=O)O)NC3=O)NC1=O)CCCN2C(C)=O (stereo partly drawn) [I-636, Ac-PL3-Asp-Ile-B5-Asp-Glu-Ala-Ala-Phe-Gln-S8-Phe-BztA-Tyr-NH2]
CHI Log D procedure
  chromatographic logD: 2.57
Solubility in PBS
  Solubility: 50 µM (≈ 95.9 µg/mL)
[1]; [2]
  IC50: 198 nM

## CC[C@H](C)[C@@H]1NC(=O)[C@H](CC(=O)O)NC(=O)[C@]2(CC=CCCCC3(CCCC=CCCCCCC[C@@](C)(C(=O)N[C@@H](Cc4ccccc4)C(=O)N[C@@H](Cc4csc5ccccc45)C(=O)N4CCC[C@H]4C(N)=O)NC(=O)[C@H](CCC(N)=O)NC(=O)[C@H](Cc4ccccc4)NC(=O)[C@H](C)NC(=O)[C@H](C)NC(=O)[C@H](CCC(=O)O)NC(=O)[C@H](CC(=O)O)NC3=O)NC1=O)CCCN2C(C)=O (stereo partly drawn) [I-638, Ac-PL3-Asp-Ile-B5-Asp-Glu-Ala-Ala-Phe-Gln-S8-Phe-BztA-Pro-NH2]
CHI Log D procedure
  CHI Log D: 2.622
Solubility in PBS
  Solubility: 48 µM (≈ 88.9 µg/mL)
[1]; [2]
  IC50: 3880 nM
[1]; read-out: FP EC50
  IC50: 3880 nM

## CC[C@H](C)[C@@H]1NC(=O)[C@H](CC(=O)O)NC(=O)[C@]2(CC=CCCCC3(CCCC=CCCCCCC[C@@](C)(C(=O)N[C@@H](Cc4ccccc4)C(=O)N[C@@H](Cc4csc5ccccc45)C(=O)N[C@@H](CO)C(N)=O)NC(=O)[C@H](CCC(N)=O)NC(=O)[C@H](Cc4ccccc4)NC(=O)[C@H](C)NC(=O)[C@H](C)NC(=O)[C@H](CCC(=O)O)NC(=O)[C@H](CC(=O)O)NC3=O)NC1=O)CCCN2C(C)=O (stereo partly drawn) [I-639, Ac-PL3-Asp-Ile-B5-Asp-Glu-Ala-Ala-Phe-Gln-S8-Phe-BztA-Ser-NH2]
CHI Log D procedure
  CHI Log D: 2.49
Solubility in PBS
  Solubility: 44 µM (≈ 81.1 µg/mL)
[1]; [2]
  IC50: 109 nM
[1]; read-out: FP EC50
  IC50: 109 nM

## CC[C@H](C)[C@@H]1NC(=O)[C@H](CC(=O)O)NC(=O)[C@]2(CC=CCCCC3(CCCC=CCCCCCC[C@@](C)(C(=O)N[C@@H](Cc4ccccc4)C(=O)N[C@@H](Cc4csc5ccccc45)C(=O)N[C@@H](CO)C(N)=O)NC(=O)[C@H](CCC(N)=O)NC(=O)[C@H](Cc4ccccc4)NC(=O)[C@H](C)NC(=O)[C@H](C)NC(=O)[C@H](CCC(=O)O)NC(=O)[C@H](CC(=O)O)NC3=O)NC1=O)CCCN2C(C)=O (stereo partly drawn) [I-640, Ac-PL3-Asp-Ile-B5-Asp-Glu-Ala-Ala-Phe-Gln-S8-Phe-BztA-Ser-NH2]
CHI Log D procedure
  CHI Log D: 2.516
Solubility in PBS
  Solubility: 50 µM (≈ 92.1 µg/mL)
[1]; [2]
  IC50: 87 nM
[1]; read-out: FP EC50
  IC50: 87 nM

## CC[C@H](C)[C@@H]1NC(=O)[C@H](CC(=O)O)NC(=O)[C@]2(CC=CCCCC3(CCCC=CCCCCCC[C@@](C)(C(=O)N[C@@H](Cc4ccccc4)C(=O)N[C@@H](Cc4csc5ccccc45)C(=O)N[C@H](C(N)=O)[C@@H](C)O)NC(=O)[C@H](CCC(N)=O)NC(=O)[C@H](Cc4ccccc4)NC(=O)[C@H](C)NC(=O)[C@H](C)NC(=O)[C@H](CCC(=O)O)NC(=O)[C@H](CC(=O)O)NC3=O)NC1=O)CCCN2C(C)=O (stereo partly drawn) [I-641, Ac-PL3-Asp-Ile-B5-Asp-Glu-Ala-Ala-Phe-Gln-S8-Phe-BztA-Thr-NH2]
CHI Log D procedure
  CHI Log D: 2.497
Solubility in PBS
  Solubility: 43 µM (≈ 79.8 µg/mL)
[1]; [2]
  IC50: 122 nM
[1]; read-out: FP EC50
  IC50: 122 nM

## CC[C@H](C)[C@@H]1NC(=O)[C@H](CC(=O)O)NC(=O)[C@]2(CC=CCCCC3(CCCC=CCCCCCC[C@@](C)(C(=O)N[C@@H](Cc4ccccc4)C(=O)N[C@@H](Cc4csc5ccccc45)C(=O)N[C@H](C(N)=O)[C@@H](C)O)NC(=O)[C@H](CCC(N)=O)NC(=O)[C@H](Cc4ccccc4)NC(=O)[C@H](C)NC(=O)[C@H](C)NC(=O)[C@H](CCC(=O)O)NC(=O)[C@H](CC(=O)O)NC3=O)NC1=O)CCCN2C(C)=O (stereo partly drawn) [I-642, Ac-PL3-Asp-Ile-B5-Asp-Glu-Ala-Ala-Phe-Gln-S8-Phe-BztA-Thr-NH2]
CHI Log D procedure
  CHI Log D: 2.512
Solubility in PBS
  Solubility: 48 µM (≈ 89.1 µg/mL)
[1]; [2]
  IC50: 118 nM
[1]; read-out: FP EC50
  IC50: 118 nM

## CC[C@H](C)[C@@H]1NC(=O)[C@H](CC(=O)O)NC(=O)[C@]2(CC=CCCCC3(CCCC=CCCCCCC[C@@](C)(C(=O)N[C@@H](Cc4ccccc4)C(=O)N[C@@H](Cc4csc5ccccc45)C(=O)N[C@@H](Cc4c[nH]c5ccccc45)C(N)=O)NC(=O)[C@H](CCC(N)=O)NC(=O)[C@H](Cc4ccccc4)NC(=O)[C@H](C)NC(=O)[C@H](C)NC(=O)[C@H](CCC(=O)O)NC(=O)[C@H](CC(=O)O)NC3=O)NC1=O)CCCN2C(C)=O (stereo partly drawn) [I-643, Ac-PL3-Asp-Ile-B5-Asp-Glu-Ala-Ala-Phe-Gln-S8-Phe-BztA-Trp-NH2]
CHI Log D procedure
  CHI Log D: 2.833
Solubility in PBS
  Solubility: 28 µM (≈ 54.4 µg/mL)
[1]; [2]
  IC50: 958 nM
[1]; read-out: FP EC50
  IC50: 958 nM

## CC[C@H](C)[C@@H]1NC(=O)[C@H](CC(=O)O)NC(=O)[C@]2(CC=CCCCC3(CCCC=CCCCCCC[C@@](C)(C(=O)N[C@@H](Cc4ccccc4)C(=O)N[C@@H](Cc4csc5ccccc45)C(=O)N[C@@H](Cc4c[nH]c5ccccc45)C(N)=O)NC(=O)[C@H](CCC(N)=O)NC(=O)[C@H](Cc4ccccc4)NC(=O)[C@H](C)NC(=O)[C@H](C)NC(=O)[C@H](CCC(=O)O)NC(=O)[C@H](CC(=O)O)NC3=O)NC1=O)CCCN2C(C)=O (stereo partly drawn) [I-644, Ac-PL3-Asp-Ile-B5-Asp-Glu-Ala-Ala-Phe-Gln-S8-Phe-BztA-Trp-NH2]
CHI Log D procedure
  CHI Log D: 2.837
Solubility in PBS
  Solubility: 22 µM (≈ 42.7 µg/mL)
[1]; [2]
  IC50: 808 nM
[1]; read-out: FP EC50
  IC50: 808 nM

## CC[C@H](C)[C@@H]1NC(=O)[C@H](CC(=O)O)NC(=O)[C@]2(CC=CCCCC3(CCCC=CCCCCCC[C@@](C)(C(=O)N[C@@H](Cc4ccccc4)C(=O)N[C@@H](Cc4csc5ccccc45)C(=O)N[C@H](C(N)=O)C(C)C)NC(=O)[C@H](CCC(N)=O)NC(=O)[C@H](Cc4ccccc4)NC(=O)[C@H](C)NC(=O)[C@H](C)NC(=O)[C@H](CCC(=O)O)NC(=O)[C@H](CC(=O)O)NC3=O)NC1=O)CCCN2C(C)=O (stereo partly drawn) [I-645, Ac-PL3-Asp-Ile-B5-Asp-Glu-Ala-Ala-Phe-Gln-S8-Phe-BztA-Val-NH2]
CHI Log D procedure
  CHI Log D: 2.677
Solubility in PBS
  Solubility: 40 µM (≈ 74.2 µg/mL)
[1]; [2]
  IC50: 395 nM
[1]; read-out: FP EC50
  IC50: 395 nM

## CC[C@H](C)[C@@H]1NC(=O)[C@H](CC(=O)O)NC(=O)[C@]2(CC=CCCCC3(CCCC=CCCCCCC[C@@](C)(C(=O)N[C@@H](Cc4ccccc4)C(=O)N[C@@H](Cc4csc5ccccc45)C(=O)N[C@H](C(N)=O)C(C)C)NC(=O)[C@H](CCC(N)=O)NC(=O)[C@H](Cc4ccccc4)NC(=O)[C@H](C)NC(=O)[C@H](C)NC(=O)[C@H](CCC(=O)O)NC(=O)[C@H](CC(=O)O)NC3=O)NC1=O)CCCN2C(C)=O (stereo partly drawn) [I-646, Ac-PL3-Asp-Ile-B5-Asp-Glu-Ala-Ala-Phe-Gln-S8-Phe-BztA-Val-NH2]
CHI Log D procedure
  CHI Log D: 2.694
Solubility in PBS
  Solubility: 41 µM (≈ 76 µg/mL)
[1]; [2]
  IC50: 461 nM
[1]; read-out: FP EC50
  IC50: 461 nM
